# Assay results from patent US8399681B2, “Substituted aminothiazolone indazoles as estrogen related receptor-alpha modulators” (Janssen Pharmaceutica NV, priority 2009, dated 2013).
# Target: T1, ERR1 (also known as ERR-α or ERR-1) (Homo sapiens, UniProt P11474)
# T1 sequence (P11474 193-421 limits assumed): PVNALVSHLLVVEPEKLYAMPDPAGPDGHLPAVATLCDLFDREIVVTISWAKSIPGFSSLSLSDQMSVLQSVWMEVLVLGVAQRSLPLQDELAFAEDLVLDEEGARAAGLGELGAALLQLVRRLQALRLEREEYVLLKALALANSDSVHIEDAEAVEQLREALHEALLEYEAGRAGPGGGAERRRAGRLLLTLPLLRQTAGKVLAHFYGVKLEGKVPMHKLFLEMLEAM
# Assay: TR-FRET assay (disruption of co-activator peptide binding)
# Assay type: biochemical
# Details: 6His-tagged ERR1 LBD, GST-hSRC2 co-activator polypeptide; average of 3 independent experiments
# Outline: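 Compound-induced loss of co-activator recruitment, read by time-resolved FRET (excitation 340 nm; 615 and 665 nm emission) after 4-18 h at 25 °C. Reagents: 6 nM ERR1LBD, 6 nM GST-SRC-2, 30 nM Eu cryptate, 7.5 nM XL665, pH 8 Tris buffer. Values: hyperbolic fits averaged over 3 independent runs.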
row,EC50 [nM],SMILES
1,5,"O=C1N=C(N2CCO[C@H](CO)C2)S/C1=C\c1ccc2c(c1)c(I)nn2Cc1ccc(C(F)(F)F)cc1C(F)(F)F [Example 175, 5-[1-(2,4-Bis-trifluoromethyl-benzyl)-3-iodo-1H-indazol-5-ylmethylene]-2(S)-(2-hydroxymethyl-morpholin-4-yl)-thiazol-4-one]"
2,44,"COC(=O)CCNC(=O)C1CN(C2=NC(=O)/C(=C/c3ccc4c(cnn4Cc4ccc(C(F)(F)F)cc4C(F)(F)F)c3)S2)C1 [Example 153, 3-[(1-{5-[1-(2,4-Bis-trifluoromethyl-benzyl)-1H-indazol-5-ylmethylene]-4-oxo-4,5-dihydro-thiazol-2-yl}-azetidine-3-carbonyl)-amino]-propionic acid methyl ester]"
3,42,CC(C)N[C@@H]1C[C@H](CO)N(C2=NC(=O)/C(=C/c3ccc4c(cnn4Cc4ccc(Cl)cc4C(F)(F)F)c3)S2)C1 [Example 263]
4,4.6,"O=C1CN(C2=NC(=O)/C(=C/c3ccc4c(cnn4Cc4ccc(Cl)cc4C(F)(F)F)c3)S2)CCN1 [Compound 12, 4-{5-[1-(4-Chloro-2-trifluoromethyl-benzyl)-1H-indazol-5-ylmethylene]-4-oxo-4,5-dihydro-thiazol-2-yl}-piperazin-2-one]"
5,7.3,"O=C1CCN(C2=NC(=O)/C(=C/c3ccc4c(cnn4Cc4ccc(C(F)(F)F)cc4C(F)(F)F)c3)S2)CCN1 [Example 118, 1-{5-[1-(2,4-Bis-trifluoromethyl-benzyl)-1H-indazol-5-ylmethylene]-4-oxo-4,5-dihydro-thiazol-2-yl}-[1,4]diazepan-5-one]"
6,4.7,"O=C1N=C(N2CCN(CCO)CC2)S/C1=C\c1ccc2c(cnn2Cc2ccc(Cl)cc2C(F)(F)F)c1 [Compound 13, 5-[1-(4-Chloro-2-trifluoromethyl-benzyl)-1H-indazol-5-ylmethylene]-2-[4-(2-hydroxy-ethyl)piperazin-1-yl]-thiazol-4-one]"
7,92,"O=C1N=C(N2CCN(CCO)CC2)S/C1=C\c1ccc2c(cnn2Cc2ccc(F)cc2C(F)(F)F)c1 [Compound 4, 5-[1-(4-Fluoro-2-trifluoromethyl-benzyl)-1H-indazol-5-ylmethylene]-2-[4-(2-hydroxy-ethyl)-piperazin-1-yl]-thiazol-4-one]"
8,26.2,"NC1(C(=O)O)CCN(C2=NC(=O)/C(=C/c3ccc4c(cnn4Cc4ccc(Cl)cc4C(F)(F)F)c3)S2)CC1 [Example 154, 4-Amino-1-{5-[1-(4-chloro-2-trifluoromethyl-benzyl)-1H-indazol-5-ylmethylene]-4-oxo-4,5-dihydro-thiazol-2-yl}-piperidine-4-carboxylic acid]"
9,21,"O=C(O)CC1CCN(C2=NC(=O)/C(=C/c3ccc4c(cnn4Cc4ccc(Cl)cc4C(F)(F)F)c3)S2)C1 (stereo not drawn) [Example 145, (1-{5-[1-(4-Chloro-2-trifluoromethyl-benzyl)-1H-indazol-5-ylmethylene]-4-oxo-4,5-dihydro-thiazol-2-yl}-pyrrolidin-3-yl)-acetic acid]"

# The remaining lines, values behind:
row,SMILES,EC50 [nM]
1,"O=C1N=C(N2CCN(C3CC3)CC2)S/C1=C\c1ccc2c(cnn2Cc2ccc(C(F)(F)F)cc2C(F)(F)F)c1 [Example 122, 5-[1-(2,4-Bis-trifluoromethyl-benzyl)-1H-indazol-5-ylmethylene]-2-(4-cyclopropyl-piperazin-1-yl)-thiazol-4-one]",41.8
2,"COC[C@@H]1CN(C2=NC(=O)/C(=C/c3ccc4c(cnn4Cc4ccc(C(F)(F)F)cc4C(F)(F)F)c3)S2)CCO1 [Example 234, 5-({1-[2,4-Bis(trifluoromethyl)benzyl]-1H-indazol-5-yl}methylidene)-2-[2-(S)-(methoxymethyl)morpholin-4-yl]-1,3-thiazol-4(5H)-one]",16
3,"O=C1N=C(N2CCN[C@@H](CO)C2)S/C1=C\c1ccc2c(cnn2Cc2ccc(F)cc2C(F)(F)F)c1 [Example 178, 5-[1-(4-Fluoro-2-trifluoromethyl-benzyl)-1H-indazol-5-ylmethylene]-2-((3R)-3-hydroxymethyl-piperazin-1-yl)-thiazol-4-one]",52
4,"O=C1N=C(N2CCN[C@H](CO)C2)S/C1=C\c1ccc2c(cnn2Cc2ccc(C(F)(F)F)cc2C(F)(F)F)c1 [Example 200, 5-({1-[2,4-Bis(trifluoromethyl)benzyl]-1H-indazol-5-yl}methylidene)-2-[3-(S)-(hydroxymethyl)piperazin-1-yl]-1,3-thiazol-4(5H)-one]",13
5,"CN1CCN(C2=NC(=O)/C(=C/c3ccc4c(cnn4Cc4ccc(S(C)(=O)=O)cc4C(F)(F)F)c3)S2)CC1 [Compound 15, 5-[1-(4-Methanesulfonyl-2-trifluoromethyl-benzyl)-1H-indazol-5-ylmethylene]-2-(4-methyl-piperazin-1-yl)-thiazol-4-one]",530
6,"O=C1N=C(N2CC(O)C2)S/C1=C\c1ccc2c(cnn2Cc2ccc(Cl)cc2C(F)(F)F)c1 [Example 68, 5-[1-(4-Chloro-2-trifluoromethyl-benzyl)-1H-indazol-5-ylmethylene]-2-(3-hydroxy-azetidin-1-yl)-thiazol-4-one]",9.6
7,"CCNC(=O)NC1CCN(C2=NC(=O)/C(=C/c3ccc4c(cnn4Cc4ccc(C(F)(F)F)cc4C(F)(F)F)c3)S2)CC1 [Example 160, 1-(1-{5-[1-(2,4-Bis-trifluoromethyl-benzyl)-1H-indazol-5-ylmethylene]-4-oxo-4,5-dihydro-thiazol-2-yl}-piperidin-4-yl)-3-ethyl-urea]",22
8,"O=C1N=C(N2CCC(C(=O)O)C2)S/C1=C\c1ccc2c(cnn2Cc2ccc(Cl)cc2C(F)(F)F)c1 (stereo not drawn) [Example 137, 1-{5-[1-(4-Chloro-2-trifluoromethyl-benzyl)-1H-indazol-5-ylmethylene]-4-oxo-4,5-dihydro-thiazol-2-yl}-pyrrolidine-3-carboxylic acid]",14
9,"CN1CCN(C2=NC(=O)/C(=C/c3ccc4c(cnn4Cc4ccc(OS(C)(=O)=O)cc4C(F)(F)F)c3)S2)CC1 [Compound 23, Methanesulfonic acid 4-{5-[2-(4-methyl-piperazin-1-yl)-4-oxo-4H-thiazol-5-ylidenemethyl]-indazol-1-ylmethyl}-3-trifluoromethyl-phenyl ester]",10.4
10,"CCOCCN1CCN(C2=NC(=O)/C(=C/c3ccc4c(cnn4Cc4ccc(C(F)(F)F)cc4C(F)(F)F)c3)S2)CC1 [Example 73, 5-[1-(2,4-Bis-trifluoromethyl-benzyl)-1H-indazol-5-ylmethylene]-2-[4-(2-ethoxy-ethyl)-piperazin-1-yl]-thiazol-4-one]",172
11,"N#Cc1nn(Cc2ccc(C(F)(F)F)cc2C(F)(F)F)c2ccc(/C=C3\SC(N4CCN[C@@H](CO)C4)=NC3=O)cc12 [Example 217, 1-[2,4-Bis(trifluoromethyl)benzyl]-5-({2-[3-(R)-(hydroxymethyl)piperazin-1-yl]-4-oxo-1,3-thiazol-5(4H)-ylidene}methyl)-1H-indazole-3-carbonitrile]",27
12,"C=C(C)c1ccc(Cn2ncc3cc(/C=C4\SC(N5CCN[C@@H](CO)C5)=NC4=O)ccc32)c(C(F)(F)F)c1 [Example 247, 2-[3-(R)-(Hydroxymethyl)piperazin-1-yl]-5-({1-[4-(1-methylethenyl)-2-(trifluoromethyl)benzyl]-1H-indazol-5-yl}methylidene)-1,3-thiazol-4(5H)-one]",41
